# Measured values taken from patent publication US7479498B2, “Treatments for viral infections” (priority 1999, dated 2009).
# “Also recorded” adds a separate entry of the source. Structures can show the parent of a compound that is named as a salt. Where two headings read alike, the source gives them in different places.
# What was measured:
# [1] = cited from earlier work; for time to peak (maximum) plasma concentration: oral; for plasma half-life: after oral primaquine
# P. falciparum = conditions: cited from earlier work
# P. vivax = conditions: in vivo; cited from earlier work
# [2] = cited from earlier work
# GSH production = conditions: cited from earlier work
# HIV = format: cell-based; conditions: standardized extract containing 1-10 μg/ml quercetin
# Text: The in vitro effect of calcium channel blockers on HIV infection both in HIV adapted cell lines (HUT/H9) as well as acutely infected peripheral blood lymphocytes were studied.
smiles,measurement,setting,value
CCN(CC)CCCC(C)Nc1ccnc2cc(Cl)ccc12 (centres unmarked) [Chloroquine],apparent volume of distribution,[1]; in vivo,"about 13,000 L"
same,half-life (elimination / urinary excretion),[1]; in vivo,72 to 120 h
same,plasma protein binding,[1]; in vivo,50-65%
same,time to peak (maximum) plasma concentration,[1],about 3 hours
same,therapeutically effective plasma concentration,P. falciparum; sensitive P. falciparum,approximately 30 μg/L
same,therapeutically effective plasma concentration,P. vivax,~15 µg/L
OC(c1cc(C(F)(F)F)nc2c(C(F)(F)F)cccc12)C1CCCCN1 (centres unmarked) [Mefloquine],half-life (elimination / urinary excretion),[1]; in vivo,312 to 792 h
same,plasma level necessary for chemo-suppression,P. falciparum; in vivo,200 to 300 ng/mL
"O=C1NC(=O)C(c2ccccc2)(c2ccccc2)N1 [Phenytoin sodium, monosodium salt of 5,5-diphenyl hydantoinate]",solubility in water / aqueous mixtures,[2],readily soluble in water; also recorded: highly water-soluble
COc1cc(NC(C)CCCN)c2ncccc2c1 (centres unmarked) [Primaquine],plasma half-life,[1],3 to 8 h
same,peak serum concentration,[1]; oral primaquine,50 to 66 ng/mL
same,time to peak (maximum) plasma concentration,[1],1 to 2 h
C=C[C@H]1C[N@@]2CC[C@H]1C[C@H]2[C@H](O)c1ccnc2ccc(OC)cc12 [Quinine],cerebrospinal fluid concentration as share of plasma level,[1]; in vivo,about 7%
same,plasma concentration accompanied by adverse reactions of cinchonism,[1]; in vivo,over 7 μg/mL
same,red blood cell level as share of plasma level,[1]; in vivo,about 20%
same,share of drug metabolized in the liver,[1]; in vivo,Approximately 80%
same,time to peak (maximum) plasma concentration,[1],1 to 3 h
same,plasma level,"[1]; standard oral doses, normal or mild infection",about 7 μg/mL
same,mean plasma concentration effective to eliminate asexual parasites,P. vivax,over 5 μg/mL
COc1cc(NC(C)CCC(=O)O)c2ncccc2c1 (centres unmarked) [carboxyprimaquine],peak serum concentration,[1]; after 14 daily doses of primaquine,432 to 1240 ng/mL
same,plasma half-life,[1],22 to 30 h
same,plasma concentration relative to parent compound,[1]; in vivo,more than ten times greater
"O=C1NC(=O)C(c2ccccc2)(c2ccccc2)N1 [phenytoin, 5,5-diphenyl-2,4-imidazolidinedione]",solubility in water / aqueous mixtures,[2],poorly soluble in aqueous mixtures; also recorded: water insoluble
"O=c1c(O)c(-c2ccc(O)c(O)c2)oc2cc(O)cc(O)c12 [quercetin, 2-(3,4-Dihydroxyphenyl)-3,5,7-trihydroxy-4H-1-benzopyran-4-one]",absorption in the jejunum,[1]; in vivo,66%
same,increase of GSH production,GSH production,50%
same,reduction of HIV activity,HIV,5-20%
